PubChem BioAssay (NCI)
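Tested at 5 concentrations; 48 h exposure; 96-well plates; endpoints linearly interpolated, else capped at highest concentration. GI50 is the concentration that inhibits growth by half. Definition used: TGI = concentration required for complete inhibition of growth.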

Columns and labels:
Experiment in all cases: inhibition of tumour cell growth, NCI panel, 48 h; in the data active = GI50 below about 0.43 µM; inactive = the rest
[1] = system: HOP-62 NSCLC
[2] = system: COLO 205 colon
[3] = system: NCI-H226 lung
[4] = system: SR leukemia
[5] = system: MCF7 breast
[6] = system: SK-MEL-28 melanoma
[7] = system: HS 578T breast
[8] = system: HOP-92 NSCLC
[9] = system: HCC-2998 colon
[10] = system: MDA-MB-435
[11] = system: SF-268 CNS
[12] = system: OVCAR-3 ovarian
[13] = system: EKVX NSCLC
[14] = system: A498 renal
[15] = system: MDA-MB-231 breast
[16] = system: 786-0 renal
[17] = system: MDA-MB-468 breast
[18] = system: T-47D breast
[19] = system: UO-31 renal
[20] = system: SNB-75 CNS
[21] = system: NCI-H460 lung
[22] = system: ACHN renal
[23] = system: SF-295 CNS
[24] = system: SK-OV-3 ovarian
[25] = system: UACC-62 melanoma
[26] = system: OVCAR-8 ovarian
[27] = system: TK-10 renal
[28] = system: SW-620 colon
[29] = system: LOX IMVI melanoma
[30] = system: RXF 393 renal
[31] = system: HCT-15 colon
[32] = system: MOLT-4 leukemia
[33] = system: OVCAR-5 ovarian
[34] = system: SF-539 CNS
[35] = system: NCI-H522 lung
[36] = system: HT29 colon
[37] = system: MALME-3M melanoma
[38] = system: PC-3 prostate
[39] = system: A549 NSCLC
[40] = system: M14 melanoma
[41] = system: U251 CNS
[42] = system: HL-60(TB) leukemia
[43] = system: RPMI-8226 leukemia
[44] = system: UACC-257 melanoma
[45] = system: KM12 colon
[46] = system: BT-549 breast
[47] = system: HCT-116 colon
[48] = system: SK-MEL-5 melanoma
[49] = system: SN12C renal
[50] = system: SNB-19 CNS
[51] = system: DU-145 prostate
[52] = system: K-562 leukemia
[53] = system: NCI-H23 lung
[54] = system: CCRF-CEM leukemia
[55] = system: OVCAR-4 ovarian
[56] = system: IGROV1 ovarian
[57] = system: CAKI-1 renal
[58] = system: NCI/ADR-RES ovarian
[59] = system: SK-MEL-2 melanoma

O=C(COc1ccc(NC(=O)Nc2ccc(Cl)cc2)cc1)N/N=C/c1ccccc1
71.7 µM: TGI [37]
27.4 µM: TGI [34]
43.1 µM: TGI [6]
90.8 µM: TGI [13]
56.2 µM: TGI [46]
24.9 µM: TGI [16]
19 µM: TGI [30]
33.1 µM: TGI [4]
25.8 µM: TGI [24]
25.9 µM: TGI [53]
13.7 µM: TGI [23] | TGI [25]
54.2 µM: TGI [7] | TGI [12]
37.6 µM: TGI [22]
9.82 µM: TGI [3]
20.7 µM: TGI [50]
47.6 µM: TGI [15]
12.6 µM: TGI [47]
99.8 µM: TGI [11]
11.1 µM: TGI [1]
21.2 µM: TGI [38]
inactive: GI50 [1] 2.62 µM | GI50 [2] 19 µM | GI50 [3] 2.85 µM | GI50 [4] 4.59 µM | GI50 [5] 3.88 µM | GI50 [6] 3.87 µM | GI50 [7] 7.71 µM | GI50 [8] 3 µM | GI50 [9] 22.5 µM | GI50 [10] 3.76 µM | GI50 [11] 16.2 µM | GI50 [12] 4.15 µM | GI50 [13] 6.09 µM | GI50 [14] 20.1 µM | GI50 [15] 8.57 µM | GI50 [16] 6.26 µM | GI50 [17] 3.23 µM | GI50 [18] 8.22 µM | GI50 [19] 86.4 µM | GI50 [20] 3.95 µM | GI50 [21] 3.22 µM | GI50 [22] 4.64 µM | GI50 [23] 2.69 µM | GI50 [24] 6.06 µM | GI50 [25] 2.82 µM | GI50 [26] 3.81 µM | GI50 [27] 20.2 µM | GI50 [28] 6.03 µM | GI50 [29] 7.1 µM | GI50 [30] 4.55 µM | GI50 [31] 5.85 µM | GI50 [32] 59.5 µM | GI50 [33] > 100 µM | GI50 [34] 6.23 µM | GI50 [35] 7.74 µM | GI50 [36] 31.2 µM | GI50 [37] 4.44 µM | GI50 [38] 2.81 µM | GI50 [39] 4.67 µM | GI50 [40] 5.02 µM | GI50 [41] 4.05 µM | GI50 [42] > 100 µM | GI50 [43] 63.9 µM | GI50 [44] 17.4 µM | GI50 [45] > 100 µM | GI50 [46] 4.41 µM | GI50 [47] 1.68 µM | GI50 [48] 8.49 µM | GI50 [49] 7.64 µM | GI50 [50] 4.42 µM | GI50 [51] 4.51 µM | GI50 [52] 12.6 µM | GI50 [53] 4.21 µM | GI50 [54] 21.8 µM | GI50 [55] 3.34 µM | GI50 [56] 14.1 µM | GI50 [57] 15 µM
50.9 µM: TGI [14]
24.3 µM: TGI [20]
> 100 µM: TGI [2] | TGI [5] | TGI [9] | TGI [10] | TGI [18] | TGI [19] | TGI [21] | TGI [26] | TGI [28] | TGI [29] | TGI [31] | TGI [32] | TGI [33] | TGI [35] | TGI [36] | TGI [39] | TGI [40] | TGI [41] | TGI [42] | TGI [43] | TGI [44] | TGI [45] | TGI [48] | TGI [49] | TGI [51] | TGI [52] | TGI [54] | TGI [56] | TGI [57]
68.7 µM: TGI [55]
63.8 µM: TGI [27]
10.6 µM: TGI [17]
16 µM: TGI [8]

Cn1cc(NC(=O)c2cc(NC(=O)c3ccc(/C=C/c4ccccc4)cc3)cn2C)cc1C(=O)NCCCN1CCOCC1
26.3 µM: TGI [20]
18.5 µM: TGI [17]
9.32 µM: TGI [29]
16.1 µM: TGI [52]
16.3 µM: TGI [59]
14.9 µM: TGI [8]
16.5 µM: TGI [34]
18.4 µM: TGI [46]
> 28 µM: TGI [1] | TGI [2] | TGI [3] | TGI [5] | TGI [6] | TGI [7] | TGI [9] | TGI [10] | TGI [11] | TGI [12] | TGI [13] | TGI [14] | TGI [15] | TGI [16] | TGI [18] | TGI [19] | TGI [21] | TGI [22] | TGI [23] | TGI [24] | TGI [25] | TGI [26] | TGI [27] | TGI [31] | TGI [32] | TGI [33] | TGI [37] | TGI [38] | TGI [39] | TGI [40] | TGI [41] | TGI [42] | TGI [43] | TGI [44] | TGI [45] | TGI [47] | TGI [48] | TGI [49] | TGI [50] | TGI [51] | TGI [53] | TGI [54] | TGI [55] | TGI [56] | TGI [57]
25.2 µM: TGI [35]
24.2 µM: TGI [58]
19.6 µM: TGI [36]
18 µM: TGI [30]
inactive: GI50 [1] 9.43 µM | GI50 [2] > 28 µM | GI50 [3] 24.1 µM | GI50 [5] 3.57 µM | GI50 [58] 7.31 µM | GI50 [6] > 28 µM | GI50 [7] 6.14 µM | GI50 [8] 3.15 µM | GI50 [9] 16.6 µM | GI50 [10] 8.59 µM | GI50 [11] 21.5 µM | GI50 [12] 6.82 µM | GI50 [13] 16.6 µM | GI50 [14] > 28 µM | GI50 [15] 9.18 µM | GI50 [59] 4.94 µM | GI50 [16] 8.59 µM | GI50 [17] 5.88 µM | GI50 [18] 5.59 µM | GI50 [19] 15.2 µM | GI50 [20] 4.42 µM | GI50 [21] 9.62 µM | GI50 [22] 18.6 µM | GI50 [23] 17.8 µM | GI50 [24] > 28 µM | GI50 [25] 21.2 µM | GI50 [26] 7.21 µM | GI50 [27] 15.1 µM | GI50 [28] 6.89 µM | GI50 [29] 4.59 µM | GI50 [30] 2.08 µM | GI50 [31] 7.41 µM | GI50 [32] 7.96 µM | GI50 [33] > 28 µM | GI50 [34] 5.8 µM | GI50 [35] 6.56 µM | GI50 [36] 4.85 µM | GI50 [37] 13.8 µM | GI50 [38] 13 µM | GI50 [39] > 28 µM | GI50 [40] 14.7 µM | GI50 [41] 10.5 µM | GI50 [42] 7.49 µM | GI50 [43] 3.35 µM | GI50 [44] 19.2 µM | GI50 [45] 8.07 µM | GI50 [46] 4.84 µM | GI50 [47] 7.39 µM | GI50 [48] 14 µM | GI50 [49] 5.28 µM | GI50 [50] > 28 µM | GI50 [51] 10.1 µM | GI50 [52] 4.79 µM | GI50 [53] 13.4 µM | GI50 [54] 5.74 µM | GI50 [55] > 28 µM | GI50 [56] > 28 µM | GI50 [57] 15.3 µM
18.7 µM: TGI [28]
